According to US4920103A, “Modifications of mycinose and 3-O-demethylmycinose in tylosin-type macrolides” (Eli Lilly and Company, priority 1986, dated 1990):
Converted amounts (≈) assume the structure as drawn. Read-outs that look alike come from different tables or passages of the source.

Experiments:
Type in all cases: cell-based
[1] = system: Staphylococcus aureus X1.1; test: MIC, standard agar-dilution assay, S. aureus X1.1
Procedure: (§1) The MIC's in Table II were determined by standard agar-dilution assays. The MIC's in Table III were obtained using conventional broth-dilution microtiter tests.

[2] = system: Staphylococcus epidermidis 222; test: MIC, standard agar-dilution assay, S. epidermidis 222
Procedure: as §1

[3] = system: Staphylococcus epidermidis EPI1; test: MIC, standard agar-dilution assay, S. epidermidis EPI1
Procedure: as §1

[4] = system: Pseudomonas aeruginosa X239; test: MIC, standard agar-dilution assay, P. aeruginosa X239
Procedure: as §1

[5] = system: Haemophilus influenzae 76; test: MIC, standard agar-dilution assay, H. influenzae 76
Procedure: as §1

[6] = system: Staphylococcus aureus X400; test: MIC, standard agar-dilution assay, S. aureus X400
Procedure: as §1

[7] = system: Klebsiella pneumoniae X68; test: MIC, standard agar-dilution assay, K. pneumoniae X68
Procedure: as §1

[8] = system: Haemophilus influenzae C.L.; test: MIC, standard agar-dilution assay, H. influenzae C.L.
Procedure: as §1

[9] = system: Staphylococcus aureus S13E; test: MIC, standard agar-dilution assay, S. aureus S13E
Procedure: as §1

[10] = system: Streptococcus Group D 2041; test: MIC, standard agar-dilution assay, Streptococcus Group D 2041; conditions: GROUPD2041
Procedure: as §1

[11] = system: Streptococcus pyogenes C203; test: MIC, standard agar-dilution assay, S. pyogenes C203; conditions: Streptococcus pyogenes, C203
Procedure: as §1

Escherichia coli EC14 = test: MIC, standard agar-dilution assay, E. coli EC14
Procedure: as §1

[12] = system: Staphylococcus aureus V41; test: MIC, standard agar-dilution assay, S. aureus V41; conditions: Staphylococcus aureus, V41
Procedure: as §1

[13] = system: Streptococcus pneumoniae Park I; test: MIC, standard agar-dilution assay, S. pneumoniae Park I; conditions: Streptococcus pneumoniae
Procedure: as §1

[14] = system: Streptococcus Group D X66; test: MIC, standard agar-dilution assay, Streptococcus Group D X66
Procedure: as §1

[15] = agar-dilution, ampicillin-resistant strain, read-out: MIC
[16] = agar-dilution, ampicillin-sensitive strain, read-out: MIC
[17] = agar-dilution, methicillin-resistant strain, read-out: MIC

Structure (SMILES)	MIC [1] [µg/mL]	MIC [2] [µg/mL]	MIC [3] [µg/mL]	MIC ([4]; agar-dilution, read-out: MIC) [µg/mL]	MIC [5, 15] [µg/mL]	MIC [6] [µg/mL]	MIC ([7]; agar-dilution, read-out: MIC) [µg/mL]	MIC [8, 16] [µg/mL]	MIC [9] [µg/mL]	MIC [10] [µg/mL]	MIC [11] [µg/mL]	MIC (Escherichia coli EC14; agar-dilution, read-out: MIC) [µg/mL]	MIC [12] [µg/mL]	MIC [13] [µg/mL]	MIC [14] [µg/mL]	MIC [5] [µg/mL]	MIC [8] [µg/mL]	other results
CCC1OC(=O)CC(O)C(C)C(OC2OC(C)C(O)C(N(C)C)C2O)C(CCOc2ccccc2)CC(C)C(=O)C=CC(C)=CC1COC1OC(C)/C(=N\OC)C(OC)C1OC (stereo not drawn) [Compound 6, 4"-O-Methoxyimino-20-DH-20-O-phenyl-desmycosin]	2 (≈ 2.28 µM)	2 (≈ 2.28 µM)	2 (≈ 2.28 µM)	> 128	> 128	2 (≈ 2.28 µM)	> 128	> 128	2 (≈ 2.28 µM)	8 (≈ 9.12 µM)	4 (≈ 4.56 µM)	> 128	2 (≈ 2.28 µM)	1 (≈ 1.14 µM)	4 (≈ 4.56 µM)	–	–	–
CCC1OC(=O)CC(O)C(C)C(OC2OC(C)C(O)C(N(C)C)C2O)C(CCOc2ccccc2)CC(C)C(=O)C=CC(C)=CC1COC1OC(C)/C(=N/OC)C(OC)C1OC (stereo not drawn) [Compound 7, 4"-O-Methoxyimino-20-DH-20-O-phenyl-desmycosin]	1 (≈ 1.14 µM)	1 (≈ 1.14 µM)	1 (≈ 1.14 µM)	> 128	> 128	1 (≈ 1.14 µM)	> 128	> 128	1 (≈ 1.14 µM)	–	–	> 128	1 (≈ 1.14 µM)	0.5 (≈ 0.57 µM)	–	–	–	MIC ([10]; agar-dilution, read-out: MIC): 4 µg/mL (≈ 4.56 µM); MIC ([11]; agar-dilution, read-out: MIC): 2 µg/mL (≈ 2.28 µM); MIC ([14]; agar-dilution, read-out: MIC): 2 µg/mL (≈ 2.28 µM)
CCC1OC(=O)CC(O)C(C)C(OC2OC(C)C(O)C(N(C)C)C2O)C(CCOc2ccccc2)CC(C)C(=O)C=CC(C)=CC1COC1OC(C)C(OS(=O)(=O)Cc2ccccc2)C(OC)C1OC (stereo not drawn) [Compound 17, 4"-O-Benzylsulfonyl-20-DH-20-O-phenyl-desmycosin]	4 (≈ 3.98 µM)	2 (≈ 1.99 µM)	4 (≈ 3.98 µM)	–	–	4 (≈ 3.98 µM)	–	–	4 (≈ 3.98 µM)	–	4 (≈ 3.98 µM)	–	4 (≈ 3.98 µM)	2 (≈ 1.99 µM)	32 (≈ 31.9 µM)	> 128	> 128	MIC [4]: > 128 µg/mL; MIC [7]: > 128 µg/mL; MIC ([10]; agar-dilution, read-out: MIC): 128 µg/mL (≈ 127 µM); MIC (Escherichia coli EC14): > 128 µg/mL
CCC1OC(=O)CC(O)C(C)C(OC2OC(C)C(O)C(N(C)C)C2O)C(CCOc2ccccc2)CC(C)C(=O)C=CC(C)=CC1COC1OC(C)C(I)C(OC)C1OC (stereo not drawn) [Compound 19, 4"-Deoxy-4"-iodo-20-DH-20-O-phenyl-desmycosin]	8 (≈ 8.33 µM)	8 (≈ 8.33 µM)	8 (≈ 8.33 µM)	> 128	> 128	8 (≈ 8.33 µM)	> 128	> 128	8 (≈ 8.33 µM)	8 (≈ 8.33 µM)	8 (≈ 8.33 µM)	> 128	8 (≈ 8.33 µM)	8 (≈ 8.33 µM)	8 (≈ 8.33 µM)	–	–	–
CCC1OC(=O)CC(O)C(C)C(OC2OC(C)C(OC(C)=O)C(N(C)C)C2OC(C)=O)C(CCOc2ccccc2)CC(C)C(=O)C=CC(C)=CC1COC1OC(C)C(N)C(OC)C1OC (stereo not drawn) [Compound 20, 2',4'-Di-O-acetyl-4"-amino-4"-deoxy-20-DH-20-O-phenyldesmycosin]	0.25 (≈ 0.268 µM)	0.25 (≈ 0.268 µM)	0.5 (≈ 0.536 µM)	> 128	–	0.5 (≈ 0.536 µM)	> 128	–	0.5 (≈ 0.536 µM)	8 (≈ 8.57 µM)	0.25 (≈ 0.268 µM)	> 128	0.25 (≈ 0.268 µM)	1 (≈ 1.07 µM)	4 (≈ 4.29 µM)	16 (≈ 17.1 µM)	16 (≈ 17.1 µM)	–
CCC1OC(=O)CC(O)C(C)C(OC2OC(C)C(OC(C)=O)C(N(C)C)C2OC(C)=O)C(CCOc2ccccc2)CC(C)C(=O)C=CC(C)=CC1COC1OC(C)C([n+]2ccccc2)C(OC)C1OC (stereo not drawn) [Compound 22, 2',4'-Di-O-acetyl-4"-deoxy-20-DH-20-O-phenyl-4"-pyridinium-desmycosin]	2	4	2	> 128	–	4	> 128	–	4	16	4	> 128	4	2	16	32	64	–
CCC1OC(=O)CC(O)C(C)C(OC2OC(C)C(O)C(N(C)C)C2O)C(CCOc2ccccc2)CC(C)C(=O)C=CC(C)=CC1COC1OC(C)C(NCC#N)C(OC)C1OC (stereo not drawn) [Compound 27, 4"-(Cyanomethyl)amino-4"-deoxy-20-DH-20-O-phenyl-desmycosin]	0.5 (≈ 0.563 µM)	0.5 (≈ 0.563 µM)	0.5 (≈ 0.563 µM)	> 128	–	0.5 (≈ 0.563 µM)	> 128	–	0.5 (≈ 0.563 µM)	16 (≈ 18 µM)	–	> 128	1 (≈ 1.13 µM)	–	8 (≈ 9.01 µM)	8 (≈ 9.01 µM)	4 (≈ 4.5 µM)	–
CCC1OC(=O)CC(O)C(C)C(OC2OC(C)C(O)C(N(C)C)C2O)C(CCOc2ccccc2)CC(C)C(=O)C=CC(C)=CC1COC1OC(C)C(N(C)CC#N)C(OC)C1OC (stereo not drawn) [Compound 29, 4"-[(Cyanomethyl)methylamino]-4"-deoxy-20-DH-20-O-phenyl-desmycosin]	2 (≈ 2.22 µM)	2 (≈ 2.22 µM)	1 (≈ 1.11 µM)	–	–	2 (≈ 2.22 µM)	–	–	2 (≈ 2.22 µM)	64 (≈ 70.9 µM)	–	–	2 (≈ 2.22 µM)	–	32 (≈ 35.5 µM)	32 (≈ 35.5 µM)	16 (≈ 17.7 µM)	MIC [4]: > 128 µg/mL; MIC [7]: > 128 µg/mL; MIC (Escherichia coli EC14): > 128 µg/mL
CCC1OC(=O)CC(O)C(C)C(OC2OC(C)C(O)C(N(C)C)C2O)C(CCOc2ccccc2)CC(C)C(=O)C=CC(C)=CC1COC1OC(C)C(NC)C(OC)C1OC (stereo not drawn) [Compound 31, 4"-Deoxy-20-DH-4"-methylamino-20-O-phenyl-desmycosin]	0.5 (≈ 0.579 µM)	0.5 (≈ 0.579 µM)	–	> 128	–	0.5 (≈ 0.579 µM)	> 128	–	0.25 (≈ 0.29 µM)	2 (≈ 2.32 µM)	–	> 128	0.5 (≈ 0.579 µM)	–	2 (≈ 2.32 µM)	–	32 (≈ 37.1 µM)	MIC ([11]; agar-dilution, read-out: MIC): 0.125 µg/mL (≈ 0.145 µM); MIC ([13]; agar-dilution, read-out: MIC): 0.125 µg/mL (≈ 0.145 µM)
CCC1OC(=O)CC(O)C(C)C(OC2OC(C)C(O)C(N(C)C)C2O)C(CCOc2ccccc2)CC(C)C(=O)C=CC(C)=CC1COC1OC(C)C(N(C)C)C(OC)C1OC (stereo not drawn) [Compound 33, 4"-Deoxy-20-DH-4"-dimethylamino-20-O-phenyl-desmycosin]	4 (≈ 4.56 µM)	–	–	> 128	–	–	> 128	–	4 (≈ 4.56 µM)	64 (≈ 73 µM)	–	> 128	4 (≈ 4.56 µM)	–	32 (≈ 36.5 µM)	64 (≈ 73 µM)	64 (≈ 73 µM)	MIC ([2]; agar-dilution, read-out: MIC): 2 µg/mL (≈ 2.28 µM); MIC ([3]; agar-dilution, read-out: MIC): 2 µg/mL (≈ 2.28 µM); MIC [6, 17]: 2 µg/mL (≈ 2.28 µM)
CCC1OC(=O)CC(O)C(C)C(OC2OC(C)C(O)C(N(C)C)C2O)C(CCOc2ccccc2)CC(C)C(=O)C=CC(C)=CC1COC1OC(C)C(NC(C)C)C(OC)C1OC (stereo not drawn) [Compound 35, 4"-Deoxy-20-DH-4"-isopropylamino-20-O-phenyldesmycosin]	8 (≈ 8.98 µM)	8 (≈ 8.98 µM)	8 (≈ 8.98 µM)	> 128	128 (≈ 144 µM)	16 (≈ 18 µM)	> 128	128 (≈ 144 µM)	16 (≈ 18 µM)	–	–	> 128	16 (≈ 18 µM)	–	64 (≈ 71.8 µM)	–	–	MIC ([10]; agar-dilution, read-out: MIC): 128 µg/mL (≈ 144 µM)
CCC1OC(=O)CC(O)C(C)C(OC2OC(C)C(O)C(N(C)C)C2O)C(CCOc2ccccc2)CC(C)C(=O)C=CC(C)=CC1COC1OC(C)C(NC(C)=O)C(OC)C1OC (stereo not drawn) [Compound 37, 4"-Acetylamino-4"-deoxy-20-DH-20-O-phenyl-desmycosin]	8 (≈ 8.98 µM)	8 (≈ 8.98 µM)	8 (≈ 8.98 µM)	> 128	> 128	4 (≈ 4.49 µM)	> 128	> 128	4 (≈ 4.49 µM)	–	–	> 128	4 (≈ 4.49 µM)	4 (≈ 4.49 µM)	64 (≈ 71.8 µM)	–	–	MIC ([10]; agar-dilution, read-out: MIC): 128 µg/mL (≈ 144 µM); MIC ([11]; agar-dilution, read-out: MIC): 2 µg/mL (≈ 2.24 µM)
CCCNC1C(C)OC(OCC2C=C(C)C=CC(=O)C(C)CC(CCOc3ccccc3)C(OC3OC(C)C(O)C(N(C)C)C3O)C(C)C(O)CC(=O)OC2CC)C(OC)C1OC (stereo not drawn) [Compound 38, 4"-Deoxy-20-DH-20-O-phenyl-4"-(n-propylamino)desmycosin]	–	8 (≈ 8.98 µM)	–	> 128	> 128	–	> 128	> 128	8 (≈ 8.98 µM)	64 (≈ 71.8 µM)	4 (≈ 4.49 µM)	> 128	–	–	–	–	–	MIC ([1]; agar-dilution, read-out: MIC): 16 µg/mL (≈ 18 µM); MIC ([3]; agar-dilution, read-out: MIC): 16 µg/mL (≈ 18 µM); MIC [6, 17]: 16 µg/mL (≈ 18 µM); MIC ([12]; agar-dilution, penicillin-resistant strain, read-out: MIC): 16 µg/mL (≈ 18 µM); MIC ([14]; agar-dilution, read-out: MIC): 16 µg/mL (≈ 18 µM)
CCC1OC(=O)CC(O)C(C)C(OC2OC(C)C(O)C(N(C)C)C2O)C(CCOc2ccccc2)CC(C)C(=O)C=CC(C)=CC1COC1OC(C)C(n2cccc2)C(OC)C1OC (stereo not drawn) [Compound 46, 4"-Deoxy-20-DH-20-O-phenyl-4"-pyrrol-1-yl-desmycosin]	8 (≈ 8.9 µM)	4 (≈ 4.45 µM)	8 (≈ 8.9 µM)	> 128	> 128	8 (≈ 8.9 µM)	–	> 128	8 (≈ 8.9 µM)	64 (≈ 71.2 µM)	16 (≈ 17.8 µM)	> 128	8 (≈ 8.9 µM)	2 (≈ 2.22 µM)	32 (≈ 35.6 µM)	–	–	–
